Assays:
[1] = refractive index (Na D-line) (dimensionless); wn = mass fraction of the nth substance listed; conditions: 101 kPa, Liquid, Standard Abbe refractometry
[2] = wn = mass fraction of the nth substance listed; conditions: 101 kPa, Liquid; for viscosity: Concentric cylinders viscometry; for mass density: Vibrating tube method

CC(O)CN(CC(C)O)CC(C)O (stereo not given) [triisopropanolamine] + O
Conditions | mass density, [2] [kg/m3] | refractive index, [1] | viscosity, [2] [mPa·s]
298.15 K, w1 = 0.05 | 1000.88 | 1.34069 | 1.083
298.15 K, w1 = 0.1 | 1004.3 | 1.34815 | 1.36
298.15 K, w1 = 0.15 | 1007.92 | 1.35565 | 1.71
298.15 K, w1 = 0.2 | 1011.66 | 1.36317 | 2.173
298.15 K, w1 = 0.25 | 1015.04 | 1.37063 | 2.857
303.15 K, w1 = 0.05 | 999.387 | 1.34001 | 0.9842
303.15 K, w1 = 0.1 | 1002.67 | 1.34737 | 1.198
303.15 K, w1 = 0.15 | 1006.1 | 1.35487 | 1.486
303.15 K, w1 = 0.2 | 1009.61 | 1.36227 | 1.859
303.15 K, w1 = 0.25 | 1012.73 | 1.36979 | 2.396
308.15 K, w1 = 0.05 | 997.679 | 1.33922 | 0.8883
308.15 K, w1 = 0.1 | 1000.83 | 1.34656 | 1.068
308.15 K, w1 = 0.15 | 1004.08 | 1.35393 | 1.309
308.15 K, w1 = 0.2 | 1007.37 | 1.36133 | 1.612
308.15 K, w1 = 0.25 | 1010.26 | 1.36869 | 2.051
313.15 K, w1 = 0.05 | 995.768 | 1.33853 | 0.8034
313.15 K, w1 = 0.1 | 998.785 | 1.34572 | 0.9574
313.15 K, w1 = 0.15 | 1001.88 | 1.35309 | 1.159
313.15 K, w1 = 0.2 | 1004.97 | 1.36039 | 1.418
313.15 K, w1 = 0.25 | 1007.64 | 1.36764 | 1.774
318.15 K, w1 = 0.05 | 993.671 | 1.33769 | 0.7315
318.15 K, w1 = 0.1 | 996.561 | 1.34484 | 0.8658
318.15 K, w1 = 0.15 | 999.498 | 1.35209 | 1.038
318.15 K, w1 = 0.2 | 1002.41 | 1.35933 | 1.257
318.15 K, w1 = 0.25 | 1004.88 | 1.36653 | 1.553
323.15 K, w1 = 0.05 | 991.401 | 1.3368 | 0.6696
323.15 K, w1 = 0.1 | 994.168 | 1.34387 | 0.7874
323.15 K, w1 = 0.15 | 996.957 | 1.35104 | 0.9361
323.15 K, w1 = 0.2 | 999.698 | 1.35818 | 1.125
323.15 K, w1 = 0.25 | 1002 | 1.36532 | 1.373
328.15 K, w1 = 0.05 | 988.96 | 1.33565 | 0.6164
328.15 K, w1 = 0.1 | 991.613 | 1.34287 | 0.7208
328.15 K, w1 = 0.15 | 994.263 | 1.34999 | 0.8494
328.15 K, w1 = 0.2 | 996.847 | 1.35718 | 1.013
328.15 K, w1 = 0.25 | 998.98 | 1.36417 | 1.224
333.15 K, w1 = 0.05 | 986.362 | 1.33481 | 0.5719
333.15 K, w1 = 0.1 | 988.905 | 1.34176 | 0.6624
333.15 K, w1 = 0.15 | 991.422 | 1.34883 | 0.7754
333.15 K, w1 = 0.2 | 993.857 | 1.35587 | 0.9186
333.15 K, w1 = 0.25 | 995.844 | 1.36291 | 1.104
338.15 K, w1 = 0.05 | 983.585 | 1.3337 | 0.535
338.15 K, w1 = 0.1 | 985.961 | 1.34063 | 0.6134
338.15 K, w1 = 0.15 | 988.426 | 1.34762 | 0.7114
338.15 K, w1 = 0.2 | 990.739 | 1.35461 | 0.8381
338.15 K, w1 = 0.25 | 992.589 | 1.36154 | 0.9991
343.15 K, w1 = 0.05 | 980.297 | 1.33265 | 0.5064
343.15 K, w1 = 0.1 | 982.83 | 1.33943 | 0.57
343.15 K, w1 = 0.15 | 985.312 | 1.34641 | 0.6596
343.15 K, w1 = 0.2 | 987.395 | 1.35319 | 0.7694
343.15 K, w1 = 0.25 | 989.222 | 1.36012 | 0.9113

From the NIST ThermoML archive (doi:10.1021/je300938w)
